ED50 and inhibition in vivo data for 8 compounds are collected here from ChEMBL document CHEMBL1122344, “Pyridazinones. 2. Synthesis and antisecretory and antiulcer activities of thiourea and 2-cyanoguanidine derivatives” (1983).

Type in all cases: functional
For assay [1], the species on record is Rattus norvegicus. As to the kind of experiment: Dose required to inhibit ulcer induced by stress in rats.
Assay [2] is filed under the species Rattus norvegicus. As to the kind of experiment: Dose required to inhibit gastric secretory activity in pylorus lygated rats. To be noted: Stomach.
In assay [3] the test system is Rattus norvegicus. As to the kind of experiment: Gastric antisecretory activity at the dose of 100 mg/kg in pylorus lygated rats.

Molecules are shown by their SMILES.

For `CC/N=C(/NC#N)NCCCn1nc(-c2ccccc2)ccc1=O`, the ED50 in the assay filed under Rattus norvegicus [1] was 88.5 mg/kg; in the assay filed under Rattus norvegicus [2] it was 78.3 mg/kg. Moreover, in the assay on Rattus norvegicus [3], the inhibition in vivo at 100 mg/kg turned out to be 62.9%.

In the case of `CC/N=C(\S)NCCCCn1nc(-c2ccccc2)ccc1=O`, the ED50 was found to be 19.8 mg/kg in the assay filed under Rattus norvegicus [1] and 37.2 mg/kg in the assay filed under Rattus norvegicus [2]. The compound further showed an inhibition in vivo at 100 mg/kg in the assay on Rattus norvegicus [3] of 67.7%.

Take `CC/N=C(/NC#N)NCCCCCn1nc(-c2ccccc2)ccc1=O`: the ED50 is 60.3 mg/kg in the assay filed under Rattus norvegicus [1] and 100 mg/kg in the assay filed under Rattus norvegicus [2]. Moreover, the inhibition in vivo at 100 mg/kg with Rattus norvegicus [3] stood at 48.2%.

As to `C/N=C(\S)NCCCCCn1nc(-c2ccccc2)ccc1=O`, the values for the ED50 in the assay filed under Rattus norvegicus [1] and in the assay listed under Rattus norvegicus [2] were 42.1 mg/kg and 35.3 mg/kg, respectively. The inhibition in vivo at 100 mg/kg in the assay with Rattus norvegicus [3] was determined as 68.9%.

For the compound `CN(C)/C(=N/CCCCCCn1nc(-c2ccccc2)ccc1=O)NC#N`, the ED50 came out at 92.5 mg/kg in the assay filed under Rattus norvegicus [1] and 93.1 mg/kg in the assay filed under Rattus norvegicus [2]. Besides, at 100 mg/kg the inhibition in vivo with Rattus norvegicus [3] was 58.4%.

As for `C/N=C(/NC#N)NCCCCCn1nc(-c2ccccc2)ccc1=O`, the ED50 in the assay listed under Rattus norvegicus [1] is 76.2 mg/kg; in the assay listed under Rattus norvegicus [2] it was 100 mg/kg. In the assay with Rattus norvegicus [3], this compound registered an inhibition in vivo at 100 mg/kg of 47.6%.

`CN(C)/C(=N/CCCn1nc(-c2ccccc2)ccc1=O)NC#N`: the ED50 in the assay filed under Rattus norvegicus [1] came to 93.1 mg/kg; in the assay listed under Rattus norvegicus [2] it was 53 mg/kg. Also, the inhibition in vivo at 100 mg/kg in the assay with Rattus norvegicus [3] is 72.2%.

In the case of `C=CCNC(=S)NCCCCn1nc(-c2ccccc2)ccc1=O`, the ED50 was 78.6 mg/kg in the assay listed under Rattus norvegicus [1] and over 100 mg/kg in the assay listed under Rattus norvegicus [2]. For the same compound, the inhibition in vivo at 100 mg/kg with Rattus norvegicus [3] was found to be 27.1%.
